# ChEMBL document CHEMBL1128040, “Acyl CoA:cholesterol acyltransferase (ACAT) inhibitors: heterocyclic bioisosteres for the urea group in DuP 128” (Bioorg Med Chem Lett, 1995)
# Columns and labels:
# [1] = target: T1, Sterol O-acyltransferase 1 (Mus musculus, UniProt Q61263); assay: Inhibition of Acyl coenzyme A:cholesterol acyltransferase in J774 Macrophage cell culture; type: cell-based
# T1 sequence (Q61263 whole entry): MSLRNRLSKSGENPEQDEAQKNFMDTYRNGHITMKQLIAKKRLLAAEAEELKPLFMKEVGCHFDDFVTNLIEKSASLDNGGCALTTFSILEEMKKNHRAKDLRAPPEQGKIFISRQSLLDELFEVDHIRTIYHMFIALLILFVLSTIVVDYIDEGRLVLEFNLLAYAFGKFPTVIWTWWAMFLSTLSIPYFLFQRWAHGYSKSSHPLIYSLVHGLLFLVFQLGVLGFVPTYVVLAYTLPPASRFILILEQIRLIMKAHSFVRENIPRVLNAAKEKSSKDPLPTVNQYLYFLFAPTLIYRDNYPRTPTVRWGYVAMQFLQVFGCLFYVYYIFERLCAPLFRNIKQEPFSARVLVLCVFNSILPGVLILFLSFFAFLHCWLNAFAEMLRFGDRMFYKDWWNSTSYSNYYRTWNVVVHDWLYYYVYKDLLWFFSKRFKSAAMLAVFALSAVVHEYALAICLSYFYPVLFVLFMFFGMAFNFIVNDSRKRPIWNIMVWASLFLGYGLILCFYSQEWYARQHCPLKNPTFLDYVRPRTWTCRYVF
# [2] = target: T2, Sterol O-acyltransferase 1 (Rattus norvegicus, UniProt O70536); assay: In vitro inhibition of Acyl coenzyme A:cholesterol acyltransferase in rat hepatic microsomes was measured by using AIV assay; parameters: species or system Liver
# T2 sequence (O70536 whole entry): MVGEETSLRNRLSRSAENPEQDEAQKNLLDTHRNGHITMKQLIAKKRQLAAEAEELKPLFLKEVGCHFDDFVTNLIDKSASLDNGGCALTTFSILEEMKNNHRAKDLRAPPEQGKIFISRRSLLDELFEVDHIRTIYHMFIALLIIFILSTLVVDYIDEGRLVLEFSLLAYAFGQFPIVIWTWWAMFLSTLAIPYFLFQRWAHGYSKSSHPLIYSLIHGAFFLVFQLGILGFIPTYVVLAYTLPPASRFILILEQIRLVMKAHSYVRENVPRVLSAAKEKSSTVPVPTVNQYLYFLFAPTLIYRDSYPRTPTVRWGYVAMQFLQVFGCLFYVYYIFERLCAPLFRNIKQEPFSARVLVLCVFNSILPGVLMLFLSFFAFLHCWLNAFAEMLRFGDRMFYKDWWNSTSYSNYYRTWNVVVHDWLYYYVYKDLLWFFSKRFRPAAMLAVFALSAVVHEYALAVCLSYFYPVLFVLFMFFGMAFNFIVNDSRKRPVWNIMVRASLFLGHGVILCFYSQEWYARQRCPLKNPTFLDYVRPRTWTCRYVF
# Cricetinae gen. sp. [3] = assay: Tested for effective dose required to lower the serum cholesterol levels in hamsters; type: functional, Cricetulus griseus
# Cricetinae gen. sp. [4] = assay: In vivo cholesterol lowering at a single dose of 25 mg/kg in the hamster was determined; type: functional, Cricetulus griseus
SMILES,IC50 [1] [nM],IC50 [2] [nM],ED50 (Cricetinae gen. sp. [3]) [mg/kg],Activity (Cricetinae gen. sp. [4]) [%]
COCCOCCN(CCCCCSc1nc(-c2ccc(OC)cc2)c(-c2ccc(OC)cc2)[nH]1)c1nc2ccccc2o1,80,40,–,–
CCCCN(CCCCCSc1nc(-c2ccc(OC)cc2)c(-c2ccc(OC)cc2)[nH]1)c1nc2cc(C(C)(C)C)ccc2o1,70,80,–,–
CCCCCCCN(CCCCCSc1nc(-c2ccccc2)c(-c2ccccc2)[nH]1)C(=O)Nc1ccc(F)cc1F [LECIMIBIDE],1000,–,3,–
CN(C)c1ccc(-c2nc(SCCCCCSc3nc(-c4ccc(N(C)C)cc4)c(-c4ccc(N(C)C)cc4)[nH]3)[nH]c2-c2ccc(N(C)C)cc2)cc1,60,90,–,–
COc1ccc(-c2nc(SCCCCCSc3nc4c([nH]3)c(=O)n(C)c(=O)n4C)[nH]c2-c2ccc(OC)cc2)cc1,8330,–,–,–
CCCCCCCN(CCCCCSc1nc(-c2ccccc2)c(-c2ccccc2)[nH]1)c1nc2ccccc2o1,20,300,–,30
Cc1cc(C)n(CCCCCSc2nc(-c3ccc(N(C)C)cc3)c(-c3ccc(N(C)C)cc3)[nH]2)n1,250,–,–,–
COc1ccc(-c2nc(SCCCCCSc3nc4ncncc4[nH]3)[nH]c2-c2ccc(OC)cc2)cc1,880,–,–,–
CCN(CCCCCSc1nc(-c2ccc(OC)cc2)c(-c2ccc(OC)cc2)[nH]1)c1nc2ccccc2o1,90,140,–,–
c1ccc(-c2nc(SCCCCCSc3ncnc4nc[nH]c34)[nH]c2-c2ccccc2)cc1,7510,–,–,–
CCCCCCCN(CCCCCSc1nc(-c2ccccc2)c(-c2ccccc2)[nH]1)c1nc2ccccc2s1,660,–,–,–
CC(CCCSc1nc(-c2ccccc2)c(-c2ccccc2)[nH]1)(CNc1nc2ccccc2o1)c1ccccc1 (configuration not stated),5000,–,–,–
COc1ccc(-c2nc(SCCCCCSc3nc4ccccc4[nH]3)[nH]c2-c2ccc(OC)cc2)cc1,830,630,–,–
CC(C)c1nc2ccccc2n1CCCCCSc1nc(-c2ccccc2)c(-c2ccccc2)[nH]1,710,690,–,–
COc1ccc(-c2nc(SCCCCCn3c(SC)nc4ccccc43)[nH]c2-c2ccc(OC)cc2)cc1,950,1400,–,–
c1ccc(-c2nc(SCCCCCSc3nc(-c4ccccc4)c(-c4ccccc4)[nH]3)[nH]c2-c2ccccc2)cc1,6920,30,–,–

SMILES,IC50 [1] [nM],IC50 [2] [nM],ED50 (Cricetinae gen. sp. [3]) [mg/kg],Activity (Cricetinae gen. sp. [4]) [%]
COc1ccc(-c2nc(SCCCCCn3c(C(C)C)nc4ccccc43)[nH]c2-c2ccc(OC)cc2)cc1,320,230,–,–
COc1ccc(-c2nc(SCCCCCSc3nc(-c4ccc(OC)cc4)c(-c4ccc(OC)cc4)[nH]3)[nH]c2-c2ccc(OC)cc2)cc1,200,220,–,–
CC(C)c1nc2ccccc2n1CCCCCSc1nc(-c2ccc(N(C)C)cc2)c(-c2ccc(N(C)C)cc2)[nH]1,80,400,–,–
COc1ccc(-c2nc(SCCCCCn3c4ccccc4c4ccccc43)[nH]c2-c2ccc(OC)cc2)cc1,55700,50000,–,–
COc1ccc(-c2nc(SCCCCCSc3ncnc4nc[nH]c34)[nH]c2-c2ccc(OC)cc2)cc1,3650,–,–,–
CCCCCCCN(CCCCSc1nc(-c2ccc(OC)cc2)c(-c2ccc(OC)cc2)[nH]1)c1nc2ccccc2o1,500,–,–,–
CCN(CCCCCSc1nc(-c2ccccc2)c(-c2ccc(SC)cc2)[nH]1)c1nc2ccccc2o1,500,700,–,–
CCCCCCCN(CCCCCSc1nc(-c2ccc(OC)cc2)c(-c2ccc(OC)cc2)[nH]1)c1nc2ccccc2[nH]1,490,90,–,–
COc1ccc(-c2nc(SCC(C)(CSc3nc4ccccc4o3)c3ccccc3)[nH]c2-c2ccc(OC)cc2)cc1 (configuration not stated),3240,–,–,–
CCCCN(CCCCCSc1nc(-c2ccc(OC)cc2)c(-c2ccc(OC)cc2)[nH]1)c1nc2cc(Cl)c([N+](=O)[O-])cc2o1,1000,–,–,–
COc1ccc(-c2nc(SCCCCCn3c(Nc4ccccc4)nc4ccccc43)[nH]c2-c2ccc(OC)cc2)cc1,640,750,–,–
CN(C)c1ccc(-c2nc(SCCCCCNc3nc4ccccc4o3)[nH]c2-c2ccc(N(C)C)cc2)cc1,90,–,–,–
CCCCCCCN(CCCCCSc1nc(-c2ccc(OC)cc2)c(-c2ccc(OC)cc2)[nH]1)c1nc2ccccc2o1,80,40,–,–
CCN(CCCCCSc1nc(-c2ccc(N(C)C)cc2)c(-c2ccc(N(C)C)cc2)[nH]1)c1nc2ccccc2o1,50,–,–,–
c1ccc(-c2nc(SCc3cccc(C4(CNc5nc6ccccc6o5)CCCC4)c3)[nH]c2-c2ccccc2)cc1,5900,–,–,–
CCCCN(CCCCCSc1nc(-c2ccc(OC)cc2)c(-c2ccc(OC)cc2)[nH]1)c1nc2ccccc2o1,70,80,–,–
